According to patent US20250145594A1, “MODULATORS OF THE INTEGRATED STRESS PATHWAY” (Calico Life Sciences LLC, priority 2020, published 2025):

test system: ATF4 luciferase reporter in HEK293T cells; experiment: ATF4-Luc assay (in vitro model of VWMD); type: cell-based, human; details: Homo sapiens, HEK-293T, 7 h, HEK293T cells carrying the ATF4 luciferase reporter, 1 μg/mL tunicamycin, One Glo luminescence
Experimental: In order to test exemplary compounds of the invention in a cellular context, a stable VWMD cell line was first constructed. The ATF4 reporter was prepared by fusing the human full-length ATF4 5′-UTR (NCBI Accession No. BC022088.2) in front of the firefly luciferase (FLuc) coding sequence lacking the initiator methionine as described in Sidrauski et al (eLife 2013). The construct was used to produce recombinant retroviruses using standard methods and the resulting viral supernatant was used to transduce HEK293T cells, which were then subsequently selected with puromycin to generate a stable cell line.
HEK293T cells carrying the ATF4 luciferase reporter were plated on polylysine coated 384-well plates (Greiner Bio-one) at 30,000 cells per well. Cells were treated the next day with 1 μg/mL tunicamycin and 200 nM of a compound of Formula (I) for 7 hours. Luminescence was measured using One Glo (Promega) as specified by the manufacturer. Cells were maintained in DMEM with L-glutamine supplemented with 10% heat-inactivated FBS (Gibco) and Antibiotic-Antimycotic solution (Gibco).
Table 4 below summarizes the EC50 data obtained using the ATF4-Luc assay for exemplary compounds of the invention.

O=C(NC12CC(n3cnc(-c4c(F)cc(Cl)cc4F)c3)(C1)C2)[C@H]1C[C@@H](O)c2cc(Cl)ccc2O1 [Compound 344, (2R,4R)-6-chloro-N-{3-[4-(4-chloro-2,6-difluorophenyl)-1H-imidazol-1-yl]bicyclo[1.1.1]pentan-1-yl}-4-hydroxy-3,4-dihydro-2H-1-benzopyran-2-carboxamide] and O=C(NC12CC(n3cc(-c4ccc(OC(F)F)nc4)cn3)(C1)C2)[C@@H]1C[C@@H](O)c2cc(Cl)ccc2O1 [Compound 332, (2S,4R)-6-chloro-N-(3-{4-[6-(difluoromethoxy)pyridin-3-yl]-1H-pyrazol-1-yl}bicyclo[1.1.1]pentan-1-yl)-4-hydroxy-3,4-dihydro-2H-1-benzopyran-2-carboxamide] cannot be ordered by EC50: under 10 nM for the first, under 10 nM for the second.

First: COc1ncc(-c2cnn(C34CC(NC(=O)[C@@H]5C[C@H](O)c6cc(Cl)ccc6O5)(C3)C4)c2)cn1 [Compound 319, (2S,4S)-6-chloro-4-hydroxy-N-{3-[4-(2-methoxypyrimidin-5-yl)-1H-pyrazol-1-yl]bicyclo[1.1.1]pentan-1-yl}-3,4-dihydro-2H-1-benzopyran-2-carboxamide]
Second: CC(F)(F)CCCOc1cnn(C23CC(NC(=O)[C@H]4C[C@@H](O)c5cc(Cl)ccc5O4)(C2)C3)c1 [Compound 521, (2R,4R)-6-chloro-N-(3-{4-[(4,4-difluoropentyl)oxy]-1H-pyrazol-1-yl}bicyclo[1.1.1]pentan-1-yl)-4-hydroxy-3,4-dihydro-2H-1-benzopyran-2-carboxamide]
The EC50 of the first is higher: 250 to 500 nM for the first, 10 to 50 nM for the second. The second is the more potent here.

First: CCO[C@H]1CCN(C(=O)c2cnn(C34CC(NC(=O)[C@H]5C[C@@H](O)c6cc(Cl)ccc6O5)(C3)C4)c2)C1 [Compound 359, (2R,4R)-6-chloro-N-(3-{4-[(3S)-3-ethoxypyrrolidine-1-carbonyl]-1H-pyrazol-1-yl}bicyclo[1.1.1]pentan-1-yl)-4-hydroxy-3,4-dihydro-2H-1-benzopyran-2-carboxamide]
Second: O=C(NC12CC(n3cc(C(=O)N4CC[C@H](OC(F)(F)F)C4)cn3)(C1)C2)[C@H]1C[C@H](O)c2cc(Cl)ccc2O1 [Compound 585, (2R,4S)-6-chloro-4-hydroxy-N-(3-{4-[(3S)-3-(trifluoromethoxy)pyrrolidine-1-carbonyl]-1H-pyrazol-1-yl}bicyclo[1.1.1]pentan-1-yl)-3,4-dihydro-2H-1-benzopyran-2-carboxamide]
The EC50 of the first is higher: 10 to 50 nM for the first, under 10 nM for the second.

O=C(NC12CC(n3cc(CCCCOC(F)(F)F)nn3)(C1)C2)[C@H]1C[C@@H](O)c2cc(Cl)ccc2O1 [Compound 465, (2R,4R)-6-chloro-4-hydroxy-N-(3-{4-[4-(trifluoromethoxy)butyl]-1H-1,2,3-triazol-1-yl}bicyclo[1.1.1]pentan-1-yl)-3,4-dihydro-2H-1-benzopyran-2-carboxamide] and O=C(NC12CC(n3cc(OCCOC(F)(F)F)nn3)(C1)C2)[C@H]1C[C@@H](O)c2cc(Cl)ccc2O1 [Compound 487, (2R,4R)-6-chloro-4-hydroxy-N-(3-{4-[2-(trifluoromethoxy)ethoxy]-1H-1,2,3-triazol-1-yl}bicyclo[1.1.1]pentan-1-yl)-3,4-dihydro-2H-1-benzopyran-2-carboxamide] cannot be ordered by EC50: under 10 nM for the first, under 10 nM for the second.

O=C(NC12CC(n3cc(OCCCOC(F)(F)F)cn3)(C1)C2)[C@H]1C[C@@H](O)c2cc(C(F)(F)F)ccc2O1 [Compound 435, (2R,4R)-4-hydroxy-N-(3-{4-[3-(trifluoromethoxy)propoxy]-1H-pyrazol-1-yl}bicyclo[1.1.1]pentan-1-yl)-6-(trifluoromethyl)-3,4-dihydro-2H-1-benzopyran-2-carboxamide] and O=C(NC12CC(n3cc(-c4ccc(C(F)(F)F)cn4)cn3)(C1)C2)[C@H]1C[C@@H](O)c2cc(C(F)(F)F)ccc2O1 [Compound 354, (2R,4R)-4-hydroxy-6-(trifluoromethyl)-N-(3-{4-[5-(trifluoromethyl)pyridin-2-yl]-1H-pyrazol-1-yl}bicyclo[1.1.1]pentan-1-yl)-3,4-dihydro-2H-1-benzopyran-2-carboxamide] cannot be ordered by EC50: under 10 nM for the first, under 10 nM for the second.

O=C(NC12CC(c3ccnc(OCCCOC(F)(F)F)c3)(C1)C2)[C@H]1C[C@@H](O)c2cc(Cl)c(F)cc2O1 [Compound 427, (2R,4R)-6-chloro-7-fluoro-4-hydroxy-N-(3-{2-[3-(trifluoromethoxy)propoxy]pyridin-4-yl}bicyclo[1.1.1]pentan-1-yl)-3,4-dihydro-2H-1-benzopyran-2-carboxamide] and O=C(N[C@H]1CC[C@H](n2cc(OCCOC(F)(F)F)cn2)CC1)[C@H]1C[C@@H](O)c2cc(Cl)c(F)cc2O1 [Compound 419, (2R,4R)-6-chloro-7-fluoro-4-hydroxy-N-[(1r,4R)-4-{4-[2-(trifluoromethoxy)ethoxy]-1H-pyrazol-1-yl}cyclohexyl]-3,4-dihydro-2H-1-benzopyran-2-carboxamide] cannot be ordered by EC50: under 10 nM for the first, under 10 nM for the second.

O=C(NC12CC(n3cc(-c4ccc(OC(F)(F)F)cc4)nn3)(C1)C2)[C@H]1C[C@@H](O)c2cc(Cl)ccc2O1 [Compound 357, (2R,4R)-6-chloro-4-hydroxy-N-(3-{4-[4-(trifluoromethoxy)phenyl]-1H-1,2,3-triazol-1-yl}bicyclo[1.1.1]pentan-1-yl)-3,4-dihydro-2H-1-benzopyran-2-carboxamide] and Cc1ccc(-c2cnn(C34CC(NC(=O)[C@H]5C[C@@H](O)c6cc(C(F)(F)F)ccc6O5)(C3)C4)c2)nc1 [Compound 555, (2R,4R)-4-hydroxy-N-{3-[4-(5-methylpyridin-2-yl)-1H-pyrazol-1-yl]bicyclo[1.1.1]pentan-1-yl}-6-(trifluoromethyl)-3,4-dihydro-2H-1-benzopyran-2-carboxamide] cannot be ordered by EC50: under 10 nM for the first, under 10 nM for the second.

First: O=C(NC12CC(n3cc([C@@H]4C[C@H]4COC(F)(F)F)cn3)(C1)C2)[C@H]1C[C@@H](O)c2cc(Cl)ccc2O1 (mixture of isomers) [Compound 372, (2R,4R)-6-chloro-4-hydroxy-N-[3-(4-{(1RS,2RS)-2-[(trifluoromethoxy)methyl]cyclopropyl}-1H-pyrazol-1-yl)bicyclo[1.1.1]pentan-1-yl]-3,4-dihydro-2H-1-benzopyran-2-carboxamide]
Second: C[C@@H](COC(F)(F)F)N(C)c1cnn(C23CC(NC(=O)[C@H]4C[C@@H](O)c5cc(Cl)ccc5O4)(C2)C3)c1 [Compound 445, (2R,4R)-6-chloro-4-hydroxy-N-[3-(4-{methyl[(2S)-1-(trifluoromethoxy)propan-2-yl]amino}-1H-pyrazol-1-yl)bicyclo[1.1.1]pentan-1-yl]-3,4-dihydro-2H-1-benzopyran-2-carboxamide]
The EC50 of the first is lower: 10 to 50 nM for the first, 500 to 2000 nM for the second.

Compared with O=C(COc1ccc(C(F)(F)F)c(F)c1)N[C@H]1CC[C@H](n2cc(C(=O)N3CC[C@H](OC(F)(F)F)C3)cn2)CC1 [Compound 614, 2-[3-fluoro-4-(trifluoromethyl)phenoxy]-N-[(1S,4r)-4-{4-[(3S)-3-(trifluoromethoxy)pyrrolidine-1-carbonyl]-1H-pyrazol-1-yl}cyclohexyl]acetamide], C[C@H](COC(F)(F)F)N(C)c1cnn(C23CC(NC(=O)[C@H]4C[C@@H](O)c5cc(Cl)ccc5O4)(C2)C3)c1 [Compound 448, (2R,4R)-6-chloro-4-hydroxy-N-[3-(4-{methyl[(2R)-1-(trifluoromethoxy)propan-2-yl]amino}-1H-pyrazol-1-yl)bicyclo[1.1.1]pentan-1-yl]-3,4-dihydro-2H-1-benzopyran-2-carboxamide] is higher in EC50: under 10 nM for the first, 500 to 2000 nM for the second.
